Assay results: patent US20080139457A1, “Therapeutic compositions comprising chorionic gonadotropins and HMG CoA reductase inhibitors” (Virginia Commonwealth University, priority 2005, published 2008)
Entries after “also recorded” stand apart in the source; their conditions may differ.

How the values were obtained:
LNCaP cells [1] = test: Apoptosis assay in LNCaP cells (trypan blue exclusion); type: cell-based, human; details: for effect of inhibitor on cell viability / hCG lethality: LY294002 10 μM or AG1478 1 μM 30 min before hCG 2 mU/ml
Procedure: Cell culture. Human prostate cells (PC3 and LCNaP) were purchased from the ATCC were cultured at 37° C. (5% (v/v CO2) in vitro using RPMI supplemented with 10% (v/v) fetal calf serum.
LNCaP cells were cultured as described above. […] The cells were isolated by trypsinization 96 hours after irradiation. The attached and floating cells were combined, and cell viability was determined by trypan blue exclusion assays using a light microscope (*p<0.05 value greater than corresponding vehicle/irradiated+vehicle value; n=3 per data point ±SEM from 3 studies).
LNCaP cells were cultured as described above. […] Caspase inhibitors were re-supplemented every 24 hours. After 96 hours of culture, cell viability numbers were determined MTT assays using a plate reader. The cells were isolated 96 hours after irradiation by trypsinization, the attached and floating cells combined, and cell viability determine by trypan blue exclusion assays using a light microscope.
(2) LNCaP cells were cultured as described above. […] Cells were isolated 96 h after irradiation by trypsinization, the attached and floating cells combined, and cell viability determine by trypan blue exclusion assays using a light microscope.
LNCaP cells were cultured as described above. […] Cells were isolated 96 hours after irradiation by trypsinization, the attached and floating cells combined, and cell viability determine by trypan blue exclusion assays using a light microscope. Cells were then lysed in SDS PAGE sample buffer and equal protein concentrations subjected to SDS PAGE followed by immunoblotting to determine the PARP1 ADP-ribosylation status (activity status) in the presence or absence of PJ-34.
LNCaP cells were cultured as described in Example 1. Twelve hours after plating the cells were transfected using Lipofectamine with either a scrambled siRNA (SCR) or with siRNA molecules to suppress PARP1 or AIF expression (siPARP; siAIF; 10 nM each). […] Cells were isolated 96 hours after irradiation by trypsinization, the attached and floating cells combined, and cell viability determine by trypan blue exclusion assays using a light microscope. Cells were then lysed in SDS PAGE sample buffer and equal protein concentrations subjected to SDS PAGE followed by immunoblotting to determine PARP1 and AIF expression in the presence or absence of siPARP and siAIF, siRNA molecules, respectively. PARP-induced cell death has been linked by some groups to the cytotoxic actions of AIF.
Apoptosis assay. LNCaP cells were cultured as described above. […] Cells were isolated by trypsinization 96 hours after irradiation, the attached and floating cells combined, and cell viability determine by trypan blue exclusion assays using a light microscope.
LNCaP cells were cultured as described above. […] Cells were isolated 96 hours after irradiation by trypsinization, the attached and floating cells combined, and cell viability determine by trypan blue exclusion assays using a light microscope.
LNCaP cells were cultured as described above. Twenty three hours after plating, cells were treated with either the control, vehicle (VEH, DMSO), or farnesyl pyrophosphate (FPP; 1 μM) or geranylgeranyl pyrophosphate (GGPP, 1 μM). […] In some cells the statin may enhance the effects of the chorionic gonadotropin by blocking farnesylation in which case the use of a farnesyl transferase inhibitor will be of further use.
Apoptosis assay in LNCaP Cells. (1) LNCaP cells were cultured as described above. Twelve hours after plating, cells were infected with either empty vector virus (CMV) or with viruses to express dominant negative AKT, dominant negative MEK1, dominant negative IkB, constitutively active AKT, and constitutively active MEK1 at a multiplicity of infection (m.o.i.) of 25. In other parallel plates of cells, 24 h after plating, cells were pretreated 30 minutes prior to any additional manipulation with either vehicle (VEH, DMSO) or a JNK½ inhibitory peptide (JNK-IP, 10 μM).

ERK½, JNK½, AKT (S473) = test: Immunoblotting of phosphorylation status of ERK½, JNK½, AKT in LNCaP cells; type: cell-based, human; details: for effect on hCG-induced ERK½ activation: pertussis toxin 300 ng/ml, AG1478 1 μM or GM6001 1 μM, 30 min after hCG 2 mU/ml
Procedure: SDS-PAGE and Immunoblotting. The cells were plated at 5×10^5 cells/cm^2 and treated with drugs at the indicated concentrations and after the indicated time of treatment, lysed in whole-cell lysis buffer (0.5 M Tris-HCl, pH 6.8, 2% SDS, 10% glycerol, 1% β-mercaptoethanol, 0.02% bromophenol blue), and the samples were boiled for 30 minutes. The boiled samples were loaded onto 10-14% SDS-PAGE and electrophoresis was run overnight. Proteins were electrophoretically transferred onto 0.22 μm nitrocellulose, and immunoblotted with various primary antibodies against different proteins. All immunoblots were visualized by enhanced chemiluminescence (ECL).
(§1) (1) LNCaP cells were cultured as described above. […] 0-6 hours after treatment, the cells were isolated, lysed in SDS PAGE sample buffer and equal protein concentrations subjected to SDS PAGE followed by immunoblotting to determine the phosphorylation status (activity status) of ERK½, JNK½, AKT (S473) and the expression level of ERK2 protein.
(§2) (2) LNCaP cells were cultured as described above. 12 hours after plating, the cells were treated with vehicle (VEH, PBS) or pertussis toxin (300 ng/ml). 23 hours after plating cells were treated with vehicle (VEH, DMSO) or the ERBB1 inhibitor AG1478 (1 μM).
(4) LNCaP cells were cultured as described above. […] Thirty minutes after irradiation the cells were isolated, lysed in SDS PAGE sample buffer and equal protein concentrations subjected to SDS PAGE followed by immunoblotting to determine the phosphorylation status (activity status) of ERK½ and ERBB1 Y1068 and the expression levels of ERBB1 and ERK2 proteins.
as §1, with “LNCaP” for “(1) LNCaP”, “At the indicated times” for “0-6 hours”, “treatment (12-96 h),” for “treatment,”

[2] = cited from earlier work
ERBB1 = test: Immunoblotting of ERBB1 phosphorylation in LNCaP cells; type: cell-based, human; details: for effect on hCG-induced ERBB1 Y1173 phosphorylation: AG1478 1 μM, pertussis toxin 300 ng/ml, PD184352 1 μM or GM6001 1 μM, 30 min after hCG 2 mU/ml
Procedure: (§3) SDS-PAGE and Immunoblotting. The cells were plated at 5×10^5 cells/cm^2 and treated with drugs at the indicated concentrations and after the indicated time of treatment, lysed in whole-cell lysis buffer (0.5 M Tris-HCl, pH 6.8, 2% SDS, 10% glycerol, 1% β-mercaptoethanol, 0.02% bromophenol blue), and the samples were boiled for 30 minutes. […] All immunoblots were visualized by enhanced chemiluminescence (ECL).
as §2
(3) LNCaP cells were cultured as described above.
(4) LNCaP cells were cultured as described above.

LNCaP cells [3] = test: Cell survival (colony formation) assay in LNCaP cells; type: cell-based, human; details: AG1478 1 μM removed 96 h after hCG 2 mU/ml and 4 Gy; 28 days
Procedure: (§4) LNCaP cells were cultured as described above.
Apoptosis Assay. LNCaP cells were cultured as described above.
as §4

PARP1 = PARP1 ADP-ribosylation status (immunoblot) in LNCaP cells; type: cell-based, human; details: AG1478 5 minutes after or 30 minutes before radiation; hCG 2 mU/ml, 4 Gy
Procedure: as §3, §4, §4

LNCaP cells [4] = test: MTT cell growth assay in LNCaP cells; type: cell-based, human; details: caspase inhibitor 50 μM, radiation 4 Gy, 96 h
Procedure: LNCaP cells were cultured as described above. […] Caspase inhibitors were re-supplemented every 24 hours. After 96 hours of culture, cell viability numbers were determined MTT assays using a plate reader.

## CC(C)=CCC/C(C)=C/CC/C(C)=C/CC/C(C)=C/COP(=O)(O)OP(=O)(O)O [GGPP, geranylgeranyl pyrophosphate]
LNCaP cells [1]; FPP 1 μM or GGPP 1 μM, lovastatin 0.6 μM, hCG 2 mU/ml, 96 h
  effect on the lethal interaction between hCG and lovastatin: abolished the lethal interaction between hCG and lovastatin

## CC[C@H](C)C(=O)O[C@H]1C[C@@H](C)C=C2C=C[C@H](C)[C@H](CC[C@@H]3C[C@@H](O)CC(=O)O3)[C@H]21 [lovastatin]
LNCaP cells [1]; lovastatin 0.1-0.6 μM 30 min before hCG 1 or 2 mU/ml, 96 h
  enhancement of the lethality of hCG: enhanced the lethality of hCG to an extent greater than was observed using a PI3K inhibitor
ERK½, JNK½, AKT (S473); lovastatin 0.6 μM with hCG 2 mU/ml, within 48 hours
  JNK½ activation, combined exposure: promoted JNK½ activation
ERK½, JNK½, AKT (S473); lovastatin 0.6 μM, hCG 2 mU/ml, within 48 hours
  hCG induced ERK½ and AKT activation: suppressed hCG induced ERK½ and AKT activation
ERK½, JNK½, AKT (S473); lovastatin 0.6 μM, within 48 hours
  basal AKT activity: suppressed basal AKT activity; also recorded: reduced AKT activity
[2]
  concentrations achievable in human plasma: 100 to 600 nM

## CNC(=O)[C@H](Cc1c[nH]c2ccccc12)NC(=O)[C@@H](CC(=O)NO)CC(C)C [GM6001]
ERK½, JNK½, AKT (S473)
  effect on hCG-induced ERK½ activation: abolisged ERBB1 Y1173 phosphorylation and ERK½ activation
ERBB1
  effect on hCG-induced ERBB1 Y1173 phosphorylation: abolisged ERBB1 Y1173 phosphorylation

## COC(=O)[C@H](CC(C)C)NC(=O)c1ccc(NC[C@@H](N)CS)cc1-c1ccccc1 [GGTI-286]
LNCaP cells [1]; GGTI-286 10 μM with hCG
  cell killing with hCG when used in place of lovastatin: Identical data LNCaP cell killing data for hCG and lovastatin exposure were obtained

## COc1cc2ncnc(Nc3cccc(Cl)c3)c2cc1OC [AG1478]
LNCaP cells [3]
  effect of ERBB1 inhibition on cell killing by hCG and radiation (colony formation): prevented the greater than additive induction of cell killing caused by combined hCG and radiation exposure
PARP1
  effect on PARP activation by combined hCG and radiation: abolished the profound activation of PARP caused by combined hCG and radiation treatment
LNCaP cells [1]; 96 h
  effect of inhibitor on cell viability / hCG lethality: did not significantly alter cell viability following hCG exposure
ERK½, JNK½, AKT (S473)
  effect on hCG-induced ERK½ activation: blocked hCG-induced ERK½ activation
ERBB1
  effect on hCG-induced ERBB1 Y1173 phosphorylation: blocked

## O=C(NOCC1CC1)c1ccc(F)c(F)c1Nc1ccc(I)cc1Cl [PD184352]
ERBB1
  effect on hCG-induced ERBB1 Y1173 phosphorylation: abolished
ERBB1; PD184352 1 μM, 4 Gy, 30 min after irradiation
  effect on radiation-induced ERBB1 Y1173 phosphorylation: did not alter radiation-induced ERBB1 Y1173 phosphorylation

## Cl.O=c1cc(N2CCOCC2)oc2c(-c3ccccc3)cccc12 [LY294002, 2-(4-Morpholinyl)-8-phenyl-4H-1-benzopyran-4-one hydrochloride]
LNCaP cells [1]; 96 h
  effect of inhibitor on cell viability / hCG lethality: enhanced hCG lethality in LNCaP cells in a greater than additive fashion

## CN(C)CC(=O)Nc1ccc2[nH]c(=O)c3ccccc3c2c1 [PJ-34]
LNCaP cells [1]; PJ-34 5 μM, hCG 2 mU/ml, 4 Gy, 96 h
  effect of PARP inhibition on potentiation of hCG lethality by radiation: abolished the potentiation of hCG lethality by radiation

## pertussis toxin
ERK½, JNK½, AKT (S473)
  effect on hCG-induced ERK½ activation: suppressed hCG-induced activation of ERK½
ERBB1
  effect on hCG-induced ERBB1 Y1173 phosphorylation: blocked

## zVAD
LNCaP cells [1]; LEHD 50 μM or zVAD 50 μM, lovastatin 0.6 μM, hCG 2 mU/ml, 96 h
  effect of caspase inhibitor on lethality of lovastatin and hCG combination: reduced the lethality of the lovastatin and hCG combination
LNCaP cells [1]; caspase inhibitor 50 μM, hCG 2 mU/ml, 4 Gy, 96 h
  effect of caspase inhibitor on cell death by hCG and radiation: modestly blunted
LNCaP cells [4]
  protection from toxicity of ionizing radiation in MTT assays: partially protected cells from the toxicity of ionizing radiation
